Experiment [1] deals with Gibberella fujikuroi ("Bakanae" disease of rice). The experiment can be described thus: Test for rice seed-disinfecting effect. Type of experiment: in vivo. The following applies: Fusarium fujikuroi, 504 h, seed immersion 25° C. 24 hours, three weeks after treatment, read-out: Controlling effect (control of disease), "Bakanae" disease of rice. A digest of the protocol: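 Bakanae-infected unhulled rice seed soaked 24 hours at 25° C in 1000 ppm compound, then sown and germinated two days. Infected-seedling rate scored three weeks after treatment; control calculated against untreated plot and graded on a standard scale.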

The test system of experiment [2] is Rhizopus nigricans. The experiment can be described thus: Test for wood rotting-preventing effect (mycelium growth inhibition on malt extract agar). Type of experiment: cell-based. The following applies: Rhizopus stolonifer, 28° C.±2° C., 2 to 10 days, read-out: Rotting preventing effect (mycelium growth-inhibitory rate), RHN. The essentials: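 Mycelial agar disks (4 mm) placed on malt extract agar containing 50 ppm test compound and grown at 28 °C ± 2 °C. Colony diameter measured 2-10 days after inoculation; mycelium growth-inhibitory rate (%) reported as a symbol score.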

For experiment [3], the system named is Trichophyton mentagrophytes IFO 5810. Briefly: In vitro antimicrobial activity on Trichophyton mentagrophytes. The format is cell-based. Also noted: key: A: Fungus is not observed at all with the naked eye.; B: Presence of fungus is slightly observed on shaking the test tube.; C: Fungus of about less than one-fourth that of the DMSO control group is observed with the naked eye.; Fungus of about less than half that of the DMSO control group is observed with the naked eye. The note with it: 10 (ppm); SGB, 27° C., 7 days. Here is the method:
3-3 In vitro antimicrobial activity on Trichophyton mentagrophytes To Trichophyton mentagrophytes IFO 5810 precultured at 27° C. for 2 to 3 weeks on a Sabouraud's glucose agar (SGA) slant medium was added a sterilized physiological salt solution containing 0.1% (W/V) Tween 80. After conidia were made free from the solution, the solution was filtered through a sterilized two-sheet gauze to remove the mycelium mass. The number of the conidia in the resulting suspension was counted with a globulimeter and adjusted so as to be 1×10^6 conidia/ml with a sterilized physiological salt solution containing 0.1%(W/V) Tween 80. This solution was used as an inoculum solution. Thereafter, 0.1 ml of this solution and 0.1 ml of the dimethyl sulfoxide (DMSO) solution of the test compound were added to 9.8 ml of Sabouraud's glucose broth (SGB), and shake-cultured at 27° C. for 7 days.

Regarding `CS(=O)(=O)c1snc(OCC#CI)c1C#N` [Compound 41, 3-(3-iodo-2-propynyloxy)-4-cyano-5-methylsulfonylisothiazole], the pest or weed control at 1000 ppm in experiment [1] lay in the range of 95 to 100%. For the same molecule, the inhibition at 50 ppm in experiment [2] was in the range of 95 to 100%. In addition, in experiment [3], the “Antimycotic activity (degree of growth, naked eye), T.mentagrophytes” value (“Antimycotic activity” for short) was “A”.
Turning to `N#Cc1c(OC(F)F)nsc1SCOCC#CI` [Compound 60], the pest or weed control at 1000 ppm in experiment [1] lay within 95 to 100%. In addition, in experiment [2], the inhibition at 50 ppm is 95 to 100%. Moreover, the “Antimycotic activity” value in experiment [3] is given as “A”.
With `N#Cc1c(OCC#CI)nsc1SC(F)F` [Compound 12, 3-(3-iodo-2-propynyloxy)-4-cyano-5-difluoromethylthioisothiazole], the pest or weed control at 1000 ppm in experiment [1] fell in the range of 95 to 100%. The inhibition at 50 ppm in experiment [2] was 95 to 100%. For the same molecule, the “Antimycotic activity” value in experiment [3] is recorded as “A”.
For the molecule `CSc1snc(OCCC#CI)c1C#N` [Compound 70], in experiment [1], the pest or weed control at 1000 ppm fell in the range of 80 to 94%. Further, in experiment [2], the inhibition at 50 ppm was in the range of 80 to 94%. Moreover, in experiment [3], the “Antimycotic activity” value is “A”.
As to `N#Cc1c(OCC#CI)nsc1S(=O)(=O)C(F)F` [Compound 43], in experiment [1], the pest or weed control at 1000 ppm lay in the range of 95 to 100%. In addition, the inhibition at 50 ppm in experiment [2] lay in the range of 95 to 100%. The “Antimycotic activity” value in experiment [3] is reported as “A”.
For the molecule `COc1snc(OCC#CI)c1C#N` [Compound 21, 3-(3-iodo-2-propynyloxy)-4-cyano-5-methoxyisothiazole], in experiment [1], the pest or weed control at 1000 ppm was in the range of 95 to 100%. Further, the inhibition at 50 ppm in experiment [2] is 95 to 100%. In addition, the “Antimycotic activity” value in experiment [3] is given as “A”.
`CC(C)Oc1snc(OCC#CI)c1C#N` [Compound 23]: the pest or weed control at 1000 ppm in experiment [1] fell in the range of 95 to 100%. Besides, the inhibition at 50 ppm in experiment [2] was in the range of 95 to 100%. In addition, the “Antimycotic activity” value in experiment [3] is recorded as “A”.
`N#Cc1c(OC(F)F)nsc1OCCC#CI` [Compound 82]: in experiment [1], the pest or weed control at 1000 ppm lay in the range of 95 to 100%. Also, the inhibition at 50 ppm in experiment [2] was 95 to 100%. Further, the “Antimycotic activity” value in experiment [3] was “A”.
For `CSc1nsc(SCOCC#CI)c1C#N` [Compound 136], the pest or weed control at 1000 ppm in experiment [1] fell in the range of 80 to 94%. Also, the inhibition at 50 ppm in experiment [2] is 95 to 100%. In experiment [3], the “Antimycotic activity” value is listed as “A”.
The corresponding values for `CSc1snc(OC(C)OCC#CI)c1C#N` (stereo not drawn) [Compound 119] are 95 to 100%, 80 to 94% and “A”.
For `COc1nsc(OCC#CI)c1C#N` [Compound 48], in that order: 95 to 100%, 95 to 100% and “A”.
The corresponding values for `CCOc1nsc(SCOCC#CI)c1C#N` [Compound 54] are 95 to 100%, 95 to 100% and “A”.
On to `N#Cc1c(OCOCC#CI)nsc1SC(F)F` [Compound 90], for which, in experiment [1], the pest or weed control at 1000 ppm is 95 to 100%. Further, the inhibition at 50 ppm in experiment [2] lay within 95 to 100%. In addition, the “Antimycotic activity” value in experiment [3] was “A”.
On to `CN(C)c1snc(OCC#CI)c1C#N` [Compound 30, 3-(3-iodo-2-propynyloxy)-4-cyano-5-dimethylaminoisothiazole], for which the pest or weed control at 1000 ppm in experiment [1] was in the range of 95 to 100%. Further, in experiment [2], the inhibition at 50 ppm fell in the range of 95 to 100%. Besides, the “Antimycotic activity” value in experiment [3] is listed as “A”.
Regarding `CCOc1snc(OCOCC#CI)c1C#N` [Compound 96], the pest or weed control at 1000 ppm in experiment [1] was in the range of 95 to 100%. In addition, the inhibition at 50 ppm in experiment [2] is 95 to 100%. Besides, in experiment [3], the “Antimycotic activity” value is recorded as “A”.
Regarding `CSc1snc(OCC#CI)c1C#N` [Compound 1, 3-(3-iodo-2-propynyloxy)-4-cyano-5-methylthioisothiazole], the pest or weed control at 1000 ppm in experiment [1] lay within 95 to 100%. Further, the inhibition at 50 ppm in experiment [2] lay within 95 to 100%. The “Antimycotic activity” value in experiment [3] was “A”.

Values taken from patent US5578622A, “Isothiazole derivatives and their uses” (Asamura Patent Office, priority 1994, dated 1996).
